# “And” between values parts separate entries of the source, which are not always exact repeats. Equal values may be shown once. Where a name gives a salt, the structure may show the parent alone. Read-outs that look alike come from different tables or passages of the source.
# Assays:
# [1] = target: MRGPRX4 WT (S83) (Homo sapiens, UniProt Q96LA9, L83S); experiment: Calcium mobilization assay (FLIPR), WT (S83) MRGPRX4 transiently expressed in HEK293T cells; assay type: cell-based; design: expressed in transfected cells; host or cells: HEK293T, transient; settings: for fig. S8 response (normalized), concentration-response: WT, single replicate; for Potency at S83- vs L83-MRGPRX4: calcium mobilization, compared with S83L (A17)
# Text: (§1) Fig. 4. […] Hydrogen bond is shown as cyan dashed lines. […] Data are from three independent experiments, performed in triplicate. (E) pEC50 plots of various agonists toward S83- and L83-MRGPRX4 through calcium mobilization assay. […] Each data point represents an independent experiment, performed in triplicate. The extra sum-of-square F test was used to examine the difference in EC50 values. One-sided t-test was used for nateglinide. *p< 0.05, **p< 0.01 and ***p< 0.001. ns = no statistical significance. Both (D) and (E) are reported as the mean ± SEM. N.D.= no detectable response ≤ 100 μM.
# (§2) HEK293 cells and MRGPRX4 stably expressed HEK293 cells were seeded in 100 μl culture media on 96-well plates at a density of 40,000 cells per well and incubated overnight. The next day, the media were replaced with a dye-loading solution from the FLIPR Calcium 5 assay kit (Molecular Devices), diluted in Hank's Balanced Salt Solution (HBSS) with 20 mM HEPES, pH 7.4. After 1 h of incubation at 37°C, cells were allowed to recover for 10 min in the dark at room temperature prior to performing intracellular calcium mobilization assay in a Flexstation-3 instrument with SoftMax®Pro 7.1 software (Molecular Devices). Serial concentrations of tested drugs were prepared in HBSS/HEPES solution at 3X concentration. […] Compounds were tested in triplicates and the signals were averaged. Responses were determined by subtracting the minimum signal (at the baseline before adding the drug) from the maximum signal (obtained after drug stimulation). Four-parameter logistic (4PL) curve fit was used to plot the dose-response curves. […] Both dose-response curve fitting and EC50s calculation are computed with GraphPad Prism software (version: 6.o or above).
# (§3) To generate murine Mrgprs expressing cells, HEK293T cells (ATCC) were seeded on poly-D-lysine coated 96 well plate at 25,000 cells per well one day prior to transfection. HEK293T cells were transiently co-transfected with the mammalian expression plasmids carrying cDNA encoding the murine Mrgpr genes and plasmid inserted with cDNA encoding murine α-subunit of the heterotrimeric G15 protein (Gα15) in triplicates using Lipofectamine LTX reagents (Thermo Scientific). To generate WT, S83L, and alanine mutant MRGPRX4-expressing cells, HEK293T cells were seeded on poly-D-lysine coated 384 well plate at 12,000 cells per well one day prior to transfection. Mammalian expression plasmids pLX304 (vector from Addgene) carrying different MRGPRX4 coding sequences were transiently transfected into HEK293T cells in triplicates with Lipofectamine LTX reagents (Thermo Scientific). Intracellular calcium mobilization assays were performed after one day of transfection. Murine Mrgprs tested include Mrgpra1, Mrgpra2a, Mrgpra2b, Mrgpra3, Mrgpra4, Mrgpra6, Mrgpra9, Mrgpra10, Mrgpra11, Mrgpra12, Mrgpra14, Mrgprb5, Mrgprb6, Mrgprb10, Mrgprb11, and Mrgprc11. WT and mutant MRGPRX4 constructs tested include WT, S83L, R82A, R86A, R95A, W158A, Y250A, and Y254A.
# [2] = target: MRGPRX4 S83L (L83) (Homo sapiens, UniProt Q96LA9); experiment: Calcium mobilization assay (FLIPR), S83L MRGPRX4 transiently expressed in HEK293T cells; assay type: cell-based; design: expressed in transfected cells; host or cells: HEK293T, transient; settings: for EC50: Fig. 4E, unit not in the head, taken from Concentration (M) of the sheet and pEC50 [M] of Fig. 4E, read-out: EC50s (each well represents individual experiment)
# Text: as §1, §2, §3
# [3] = target: T1, MRGPRX4 (S83) (Homo sapiens, UniProt Q96LA9, L83S); experiment: EC50 determination, intracellular calcium mobilization in MRGPRX4 stably expressed HEK293 cells (FLIPR Calcium 5, Flexstation-3); assay type: cell-based; settings: propofol series, individual replicate values
# T1 construct: expressed in transfected cells
# Procedure, shortened: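 EC50 came from a four-parameter logistic fit to averaged triplicate responses, each response being maximum post-stimulation signal less baseline. Intracellular calcium was monitored with Calcium 5 dye in HBSS with 20 mM HEPES, pH 7.4, after 1 h dye loading at 37 °C, using stably transfected HEK293 cells and parental controls.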
# [4] = tested on: NP2-X4+ mice (MRGPRX4 in Mrgpra3+ NP2 sensory neurons); experiment: Itch behavioral study (scratching bouts after subcutaneous nape injection) in NP2-X4+ mice; assay type: in vivo, mouse
# [5] = tested on: NP2-WT mice; experiment: Itch behavioral study (scratching bouts after subcutaneous nape injection) in littermate control NP2-WT mice; assay type: in vivo; settings: 30 min after injection of 50 μl 10 mM into the nape, each cell one mouse
# Text: Fig. 2. Phosphate monoester prodrugs induce itch in NP2-MRGPRX4+ mice through activating NP2 primary sensory neurons. (A) Mating strategy to generate NP2-X4+ mice. (B) In situ hybridization showing MRGPRX4 transcripts (magenta) in NP2-X4+ DRG as indicated by arrowheads (left) but not in littermate control NP2-WT (right). NP2 subpopulation accounts for 5% of total DRG neurons. DAPI, blue. Scale bar, 50 μm. […] . Data are expressed as mean ± SEM. *p< 0.05, **p< 0.01 and ***p< 0.001 by two-tailed unpaired Student’s t-test. ns = no statistical significance observed. (D and E) Traces of average (top, depicted as mean ± 95% confidence interval) and individual (bottom, reflected by the heatmap) calcium activity, measured by fluorescence intensity normalized to the baseline intensity (FT/F0) over time of NP2-X4+ (D) and NP2-WT (E) DRG neurons labelled with GCaMP6s (n = 110–150 neurons pooled from 3–7 independent culture vessels from 2–4 mice in each condition). 10 μM phospho-drugs and 1 mM CQ were added as indicated by the arrowheads. Neurons with FT/F0 > 1.5 after compound application were considered a positive responder. NP2-X4+: NP2-MRGPRX4+; DRG, dorsal root ganglia; CQ: chloroquine.
# . All the animals used were heterozygous unless otherwise specified. NP2-X4+ and NP2-WT littermates were generated by crossing Mrgpra3-Cre to Rosa26-lsl-MRGPRX4 as detailed previously ([15]). NP2-X4+ mice were further crossed to homozygous Rosa26-lsl-GCaMP6s to obtain NP2-WT/GCaMP6s and NP2-X4+/GCaMP6s animals. A detailed mating strategy is illustrated in fig. S5. Pirt-Cre-GCaMP6s animals were acquired by crossing Pirt-Cre to homozygous Rosa26-lsl-GCaMP6s. Pirt-Cre animals were generated through homologous recombination as indicated previously ([37]). Rosa26-lsl-GCaMP6s mouse line was provided by Dr. Dwight Bergles’ lab at the Johns Hopkins School of Medicine.
# T1 sequence (Q96LA9 whole entry L83S): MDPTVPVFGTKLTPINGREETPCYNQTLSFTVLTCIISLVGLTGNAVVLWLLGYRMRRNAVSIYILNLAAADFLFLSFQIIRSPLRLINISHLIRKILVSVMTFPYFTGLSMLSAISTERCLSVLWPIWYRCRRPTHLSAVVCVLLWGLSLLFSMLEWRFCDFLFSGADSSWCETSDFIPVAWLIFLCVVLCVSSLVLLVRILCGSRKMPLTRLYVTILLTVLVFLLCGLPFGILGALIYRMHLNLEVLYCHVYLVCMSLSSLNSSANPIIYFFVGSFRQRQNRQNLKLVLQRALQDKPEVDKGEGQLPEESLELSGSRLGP
# Chain of MRGPRX4 WT (S83) (Q96LA9 whole entry L83S): as above
# Chain of MRGPRX4 S83L (L83) (Q96LA9 whole entry, stated change not applied): as the sequence (Q96LA9 whole entry L83S) above, with S83L counted along it
smiles,measurement,setting,value
C[C@]12CC3CC(C(=O)N[C@H](Cc4ccccc4)C(=O)O)(C1)C[C@@](C)(C3)C2 [MS47134],EC50,"[1]; WT (S83), Fig. 4E, unit not in the head, taken from Concentration (M) of the sheet and pEC50 [M] of Fig. 4E, read-out: EC50s (each well represents individual experiment)",1e-05 M and 9.11e-06 M and 5.25e-06 M
same,"fig. S8 response (normalized), concentration-response",[1]; 188.2 pM,11.5885 and 10.879 and 5.439 and 5.904 and 6.997 and 13.1195 and 4.054
same,"fig. S8 response (normalized), concentration-response",[1]; 564.5 pM,1.419 and 2.1285 and 14.19 and 0.656 and -3.499 and 16.1808 and 2.837 and 3.081
same,"fig. S8 response (normalized), concentration-response",[1]; 1.69351e-9 M,13.717 and 21.0485 and 8.041 and 7.872 and 6.341 and 14.6502 and 17.1869 and 20.1054
same,"fig. S8 response (normalized), concentration-response",[1]; 5.08053e-9 M,10.406 and 7.095 and 9.933 and 10.7143 and 1.312 and 11.3703 and 16.214 and 17.6733
same,"fig. S8 response (normalized), concentration-response",[1]; 1.52416e-8 M,16.555 and 11.5885 and 5.439 and 11.8076 and 1.749 and 16.6181 and 8.6745 and 13.0523
same,"fig. S8 response (normalized), concentration-response",[1]; 4.57247e-8 M,20.1025 and 15.609 and 18.447 and 12.2449 and 9.84 and 19.0233 and 11.1066
same,"fig. S8 response (normalized), concentration-response",[1]; 1.37174e-7 M,23.177 and 26.015 and 20.1025 and 11.3703 and 12.9009 and 13.1195 and 23.7536
same,"fig. S8 response (normalized), concentration-response",[1]; 4.11523e-7 M,18.92 and 25.069 and 17.2645 and 15.0875 and 10.7143 and 17.93 and 19.3758 and 16.214
same,"fig. S8 response (normalized), concentration-response",[1]; 1.23457e-6 M,24.3595 and 15.8455 and 8.041 and 11.5889 and 9.621 and 14.4315 and 14.7548 and 20.5918
same,"fig. S8 response (normalized), concentration-response",[1]; 3.7037e-6 M,23.8865 and 16.3185 and 10.879 and 20.3353 and 21.8659 and 19.0233 and 22.7807 and 20.3486
same,"fig. S8 response (normalized), concentration-response",[1]; 1.11111e-5 M,45.6445 and 43.516 and 42.3335 and 43.5131 and 43.9504 and 44.6064 and 52.9388 and 53.9116
same,"fig. S8 response (normalized), concentration-response",[1]; 3.33333e-5 M,61.017 and 69.0579 and 61.4432 and 62.3178 and 54.6647 and 48.561 and 41.5079
same,"fig. S8 response (normalized), concentration-response",[1]; 0.0001 M,60.544 and 75.4434 and 62.6724 and 56.414 and 74.7813 and 68.4402 and 77.9895 and 57.3166
same,Potency at S83- vs L83-MRGPRX4,[1],"the L83 allele, as previously reported, exhibited greater potency and efficacy"
same,EC50,[2],2.33e-07 M and 2.26e-07 M and 1.83e-07 M
CC(C)c1cccc(C(C)C)c1OS(=O)(=O)O [Propofol sulfate],"Fig. 1D dose-response, calcium response at Concentration (M)",[3]; 9.76563e-7 M,-9.765 and -0.941 and -3.534 and -7.698 and -0.440 and -6.103 and -0.412 and -8.690 and -5.139
same,"Fig. 1D dose-response, calcium response at Concentration (M)",[3]; 1.95313e-6 M,6.750 and 16.267 and 9.058 and 9.006 and 15.719 and 7.351 and 7.826 and 16.017 and 8.232
same,"Fig. 1D dose-response, calcium response at Concentration (M)",[3]; 3.90625e-6 M,4.213 and 7.941 and 5.294 and 9.099 and 3.195 and 5.153 and 8.684 and 2.706 and 6.058
same,"Fig. 1D dose-response, calcium response at Concentration (M)",[3]; 7.8125e-6 M,-1.463 and -6.718 and -3.371 and -0.821 and -4.964 and -5.766 and -0.353 and -2.243 and -8.955
same,"Fig. 1D dose-response, calcium response at Concentration (M)",[3]; 1.5625e-5 M,-10.261 and -6.059 and -2.116 and -7.312 and -10.479 and -0.646 and -4.250 and -7.396 and -6.790
same,"Fig. 1D dose-response, calcium response at Concentration (M)",[3]; 3.125e-5 M,-14.578 and -1.085 and -26.180 and -14.763 and -11.464 and -15.617 and -4.490 and -19.590 and -17.764
same,"Fig. 1D dose-response, calcium response at Concentration (M)",[3]; 6.25e-5 M,-6.291 and -44.109 and -11.407 and -17.994 and -28.042 and -15.772 and -23.530 and -32.512 and -5.766
same,"Fig. 1D dose-response, calcium response at Concentration (M)",[3]; 0.00025 M,-9.210 and -19.710 and -18.950 and -19.770 and -23.073 and -5.027 and -19.240 and -15.426 and -13.204
same,"Fig. 1D dose-response, calcium response at Concentration (M)",[3]; 0.0005 M,-0.269 and -0.640 and -0.169 and -0.708 and -0.172 and -0.198 and -0.248 and -0.541 and -0.289
same,"Fig. 1D dose-response, calcium response at Concentration (M)",[3]; 0.001 M,6.469 and 6.229 and 2.832 and 5.169 and 2.033 and 8.329 and 8.781 and 6.580 and 0.170
same,"Scratching / itch behavior, NP2-X4+ mice vs WT littermates","[4]; 50 μl 10 mM nape injection, 30 min",no differences in itch behavior were detected
same,Scratching bouts of individual animals,"[4]; NP2-X4+, 30 min after injection of 50 μl 10 mM into the nape, each cell one mouse",4 and 14 (2×) and 2 and 12 (2×) and 11 and 42 and 6
same,Scratching bouts of individual animals,[5],15 and 0 and 6 and 5 and 3 and 11
C[C@H](CCC(=O)O)[C@H]1CC[C@H]2[C@@H]3CC[C@@H]4C[C@H](O)CC[C@]4(C)[C@H]3C[C@H](O)[C@]12C [Deoxycholic Acid],"fig. S8 response (normalized), concentration-response",[1]; 1.95e-8 M,6.035
same,"fig. S8 response (normalized), concentration-response",[1]; 3.91e-8 M,8.843
same,Potency at S83- vs L83-MRGPRX4,[1],equal potency
same,"fig. S8 response (normalized), concentration-response","[2]; 2e-5 M, single replicate",87.5629
CC(C)[C@H]1CC[C@H](C(=O)N[C@H](Cc2ccccc2)C(=O)O)CC1 [Nateglinide],EC50,"[1]; S83-MRGPRX4, Fig. 4E, read-out: pEC50 (converted)",> 0.0001 M
same,"fig. S8 response (normalized), concentration-response",[1]; 1.52416e-8 M,11.8843
same,"fig. S8 response (normalized), concentration-response",[1]; 4.11523e-7 M,16.3409
same,"fig. S8 response (normalized), concentration-response",[1]; 1.23457e-6 M,15.4027
same,Potency at S83- vs L83-MRGPRX4,[1],"the L83 allele, as previously reported, exhibited greater potency and efficacy"
same,EC50,[2],1.04e-06 M and 7.61e-07 M and 9.29e-07 M

# Source: publication PMC11645656, “MRGPRX4 mediates phospho-drug associated pruritus in a humanized mouse model” (Science translational medicine, 2024)
